Converted amounts (≈) assume the structure as drawn. Where two headings read alike, the source gives them in different places.
Tests used:
PepT1 transporter = biological target: T1, PepT1 transporter (Homo sapiens, UniProt P46059); experiment: Mucosal-to-serosal transport in Caco-2 after pre-treatment with PepT1 substrate Gly-Sar; assay type: in vitro ADME
T1 construct: host or cells: Caco-2
T1 sequence (P46059 1-708): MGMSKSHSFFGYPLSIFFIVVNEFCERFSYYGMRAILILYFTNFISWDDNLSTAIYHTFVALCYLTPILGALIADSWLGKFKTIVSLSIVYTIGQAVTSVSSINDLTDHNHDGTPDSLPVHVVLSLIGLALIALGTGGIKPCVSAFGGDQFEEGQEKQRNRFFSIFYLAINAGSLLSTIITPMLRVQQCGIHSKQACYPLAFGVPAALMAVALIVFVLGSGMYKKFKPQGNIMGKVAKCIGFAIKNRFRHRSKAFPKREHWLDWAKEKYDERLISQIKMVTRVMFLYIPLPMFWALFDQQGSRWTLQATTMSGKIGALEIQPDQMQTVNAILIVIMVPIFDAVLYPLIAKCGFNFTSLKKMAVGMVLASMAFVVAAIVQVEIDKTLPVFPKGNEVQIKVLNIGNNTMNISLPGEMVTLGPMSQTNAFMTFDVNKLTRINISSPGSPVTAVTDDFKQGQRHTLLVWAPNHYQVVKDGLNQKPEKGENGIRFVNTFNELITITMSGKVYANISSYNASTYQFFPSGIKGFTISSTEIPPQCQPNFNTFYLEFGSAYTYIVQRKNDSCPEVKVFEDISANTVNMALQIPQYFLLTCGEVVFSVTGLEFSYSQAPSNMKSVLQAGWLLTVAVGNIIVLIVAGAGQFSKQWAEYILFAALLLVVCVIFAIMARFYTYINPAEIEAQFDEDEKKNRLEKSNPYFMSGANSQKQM
Procedure: The differentiated cells were pre-treated for 30 min. with 10 mM of Gly-Sar in order to block the active transporter PepT1.
(§1) Compound I was dissolved in HBSS buffer (1% DMSO final concentration) at the concentrations of 1.5, 3 and 6 NM. Each concentration/sampling time was run in duplicate well. The test was performed in a gradient pH: the apical compartment (mucosal) was at pH 6.5, the basolateral compartment (serosal) was at pH 7.4.
(§2) Apical to basolateral (A→B, mucosal to serosal) transport: 200 μL of each concentration of compound I was added to the apical compartment and 400 μL of HBSS was added to the basolateral compartment. The plates were incubated at 37° C. An aliquot of the basolateral compartment was sampled after 60 and 120 min (t=60 and t=120). An aliquot of the apical compartment was sampled at the starting time (t=0) and after 120 min. (t=120). All samples were analyzed by LC/MS monitoring both compound I and the appearance of compound II.

Caco-2 cell monolayer = experiment: Bidirectional permeability across Caco-2 cell monolayers; assay type: in vitro ADME, human
Procedure: as §1, with “μM.” for “NM.”
as §2, with “(t=120).” for “(t=120). All samples were analyzed by LC/MS monitoring both compound I and the appearance of compound II.”
(§3) Basolateral to apical (B→A, serosal to mucosal) transport: 400 μL of each concentration of compound I was added to the basolateral compartment and 200 μL of HBSS was added to the apical compartment. The plates were incubated at 37° C. An aliquot of the apical compartment was sampled after 60 and 120 min (t=60 and t=120). An aliquot of the basolateral compartment was sampled at the starting time (t=0) and after 120 min. (t=120). All samples were analyzed by LC/MS monitoring both compound I and the appearance of compound II.
as §1, with “II” for “I”, “μM.” for “NM.”
as §2, with “II” for “I”, “(t=120).” for “(t=120). All samples were analyzed by LC/MS monitoring both compound I and the appearance of compound II.”
as §3, with “of compound II was added” for “of compound I was added”, “LC/MS monitoring compound II.” for “LC/MS monitoring both compound I and the appearance of compound II.”

[1] = Non-specific binding to cell-free transwells; assay type: in vitro ADME; details: 1.5, 3 and 6 μM; apical pH 6.5, basolateral pH 7.4
Procedure: Non-specific binding and recovery was assessed across cell-free transwells.
Compound I was tested at 1.5, 3 and 6 μM in duplicate cell-free transwells. The test was performed in a pH gradient between the apical and the basolateral compartment. […] The following sampling times were performed: 60 and 120 min for the basolateral compartment (receiver) and 120 min for the apical compartment (donor). Samples obtained were analyzed by LC-MS, both compound I and compound II were monitored in order to assess percent of recovery.

[2] = tested on: spontaneous uterine contractions; experiment: Spontaneous uterine activity in late-term anaesthetized pregnant rat; assay type: in vivo; details: late-term pregnant rats
From the text: The tocolytic effects of compound I and compound II were investigated in a model of spontaneous uterine activity in late-term (19-21 days of gestation) anaesthetized pregnant rat (Kawarabayashi et al. Am. J. Obstet. Gynecol. 175:1348-1355 (1996) and Shinkai et al. J. Pharm. Pharmacol. 52:1417-1423 (2000)). Briefly, late-term pregnant female rats were anaesthetized with urethane. One pregnant uterine horn was exposed and a polyethylene catheter bearing on the tip a latex balloon filled with saline was inserted into the lumen. The catheter was connected to an amplifying/recording system via a pressure-transducer. […] The percent variation of the AUC values relative to the spontaneous uterine response observed after each compound administration was calculated in comparison to the value recorded before the first dose-administration (basal value). The effect of compound I or compound II was evaluated by comparing pre- and post-treatment luminal uterine pressure values. For the oral administration the same computation procedure was applied at different time points after treatment. Statistical differences between treatment groups at each time-point were determined by using one-way ANOVA followed by Tukey test. Both compounds intravenously or orally administered were able to markedly reduce spontaneous uterine

[3] = Stability in HBSS buffer of the Caco-2 experiments; assay type: in vitro ADME; details: HBSS buffer (2% DMSO final concentration) at 37° C. for 60 and 120 minutes
Procedure: Stability of both compound I and compound II was assessed during the test. […] An aliquot of each solution was sampled at time zero (t=0) to assess the starting concentrations of the compounds. The solutions were incubated at 37° C. for the duration of the transport experiment. An aliquot of each solution was sampled at the end of experiment (t=120) to assess the final concentrations of compound I and compound II. Samples were analyzed by LC-MS.

[4] = In vivo conversion of compound I to compound II
Procedure: The invention is based on the discovery that compound I ((3S)-3-({[(2S)-3-(biphenyl-4-ylsulfonyl)-1,3-thiazolidin-2-yl]carbonyl}-amino)-3-(4-fluorophenyl)propyl L-valinate, represented by formula I, below) and salts thereof are converted in vivo to 3-([1,1′-biphenyl]-4-ylsulfonyl)-N-[1-(4-fluorophenyl)-3-hydroxypropyl]-1,3-thiazolidine-2-carboxamide (represented by formula II, below).
Compound II is a competitive and reversible prostaglandin F2α receptor antagonist (human FP2α receptor Ki=6 nM) that is under development for the management of preterm labor by inhibition of premature uterine contractions.

[5] = Solubility in water, FaSSIF and FeSSIF; assay type: physicochemical

Compound: CC(C)[C@H](N)C(=O)OCC[C@H](NC(=O)[C@@H]1SCCN1S(=O)(=O)c1ccc(-c2ccccc2)cc1)c1ccc(F)cc1 [Compound I, (3S)-3-({[(2S)-3-(biphenyl-4-ylsulfonyl)-1,3-thiazolidin-2-yl]carbonyl}-amino)-3-(4-fluorophenyl)propyl L-valinate]
- PepT1 mediation of transport across Caco-2 monolayers (PepT1 transporter): likely not mediated by PepT1
- Compound I in receiving compartment after Gly-Sar pre-treatment (PepT1 transporter; 10 mM Gly-Sar, A→B, 60 and 120 min): not detected
- Conversion of compound I into compound II in Caco-2 test (Caco-2 cell monolayer): confirmed
- Compound I in receiving (apical) compartment, basolateral to apical (Caco-2 cell monolayer; 60 and 120 minutes): not detected
- Compound I in receiving (basolateral) compartment, apical to basolateral (Caco-2 cell monolayer; 60 and 120 minutes): not detected
- Recovery of compound I in apical compartment at end of apical to basolateral experiment (Caco-2 cell monolayer; 120 min): low recovery
- Passage through the Caco-2 cell monolayer (Caco-2 cell monolayer; bi-directional test): did not pass through the cell monolayer
- Non-specific binding in the Caco-2 test system without cells [1]: excluded
- Effect on spontaneous uterine contraction (FIG. 2) [2]: dose-dependent and reversible effect
- Stability in HBSS buffer [3]: stable
- Conversion to compound II after gastro-intestinal tract administration [4]: rapidly converted to compound II
- solubility ([5]; FaSSIF, pH 6.5 (fasted state), read-out: Solubility in FaSSIF pH 6.5): 70 µg/mL (≈ 117 µM)
- solubility ([5]; FeSSIF, pH 5.0 (fed state), read-out: Solubility in FeSSIF pH 5.0): 90 µg/mL (≈ 150 µM)
